These compounds were tested against T1, VLA-4 (Homo sapiens, UniProt P05556+P13612) (assay: Adhesion of Jurkat cells to immobilized VCAM-1 (domains 1-3)). Settings: adhesion of CFSE-labeled Jurkat cells to recombinant human VCAM-1 (domains 1-3) coated plates; compounds as yielded by solid phase synthesis, purity about 40-90%.
T1 construct: host or cells: Jurkat clone E6-1
Format: cell-based
Set-up: scale not given here
Method in brief: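 CFSE-labelled Jurkat E6-1 cells in Tris buffer pH 7.4 with 2 mM MnCl2 were added to wells coated with insect-cell-expressed human VCAM-1 domains 1-3 (0.5 μg/ml coating solution); labelled cells were incubated for 30 min at 37 °C with the VLA-4 inhibitor.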

T1 sequence (P13612 34-1032): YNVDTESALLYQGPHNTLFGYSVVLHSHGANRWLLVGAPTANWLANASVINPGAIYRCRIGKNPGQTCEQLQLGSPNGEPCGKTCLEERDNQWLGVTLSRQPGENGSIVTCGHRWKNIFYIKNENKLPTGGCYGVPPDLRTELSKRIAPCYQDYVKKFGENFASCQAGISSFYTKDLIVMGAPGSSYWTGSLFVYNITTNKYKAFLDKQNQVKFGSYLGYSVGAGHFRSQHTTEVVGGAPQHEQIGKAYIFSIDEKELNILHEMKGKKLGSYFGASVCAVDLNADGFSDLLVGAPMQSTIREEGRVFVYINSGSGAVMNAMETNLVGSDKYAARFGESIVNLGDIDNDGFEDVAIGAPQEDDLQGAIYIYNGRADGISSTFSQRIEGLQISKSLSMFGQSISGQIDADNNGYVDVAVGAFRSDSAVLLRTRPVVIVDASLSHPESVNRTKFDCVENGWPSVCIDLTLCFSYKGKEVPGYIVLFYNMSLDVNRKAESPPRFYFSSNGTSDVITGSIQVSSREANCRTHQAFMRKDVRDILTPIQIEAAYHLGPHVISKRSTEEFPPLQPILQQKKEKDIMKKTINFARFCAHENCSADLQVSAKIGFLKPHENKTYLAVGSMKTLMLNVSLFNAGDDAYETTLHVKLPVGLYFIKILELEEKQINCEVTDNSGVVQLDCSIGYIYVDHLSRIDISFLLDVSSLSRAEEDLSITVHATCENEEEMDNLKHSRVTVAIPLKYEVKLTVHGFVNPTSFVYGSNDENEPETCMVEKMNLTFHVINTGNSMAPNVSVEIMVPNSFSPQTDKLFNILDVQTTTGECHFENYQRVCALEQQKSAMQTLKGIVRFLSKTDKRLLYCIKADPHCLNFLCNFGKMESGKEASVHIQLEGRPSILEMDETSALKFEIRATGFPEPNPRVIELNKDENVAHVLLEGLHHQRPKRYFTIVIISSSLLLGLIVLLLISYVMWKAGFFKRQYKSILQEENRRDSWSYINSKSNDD
T1 sequence (P05556 21-798): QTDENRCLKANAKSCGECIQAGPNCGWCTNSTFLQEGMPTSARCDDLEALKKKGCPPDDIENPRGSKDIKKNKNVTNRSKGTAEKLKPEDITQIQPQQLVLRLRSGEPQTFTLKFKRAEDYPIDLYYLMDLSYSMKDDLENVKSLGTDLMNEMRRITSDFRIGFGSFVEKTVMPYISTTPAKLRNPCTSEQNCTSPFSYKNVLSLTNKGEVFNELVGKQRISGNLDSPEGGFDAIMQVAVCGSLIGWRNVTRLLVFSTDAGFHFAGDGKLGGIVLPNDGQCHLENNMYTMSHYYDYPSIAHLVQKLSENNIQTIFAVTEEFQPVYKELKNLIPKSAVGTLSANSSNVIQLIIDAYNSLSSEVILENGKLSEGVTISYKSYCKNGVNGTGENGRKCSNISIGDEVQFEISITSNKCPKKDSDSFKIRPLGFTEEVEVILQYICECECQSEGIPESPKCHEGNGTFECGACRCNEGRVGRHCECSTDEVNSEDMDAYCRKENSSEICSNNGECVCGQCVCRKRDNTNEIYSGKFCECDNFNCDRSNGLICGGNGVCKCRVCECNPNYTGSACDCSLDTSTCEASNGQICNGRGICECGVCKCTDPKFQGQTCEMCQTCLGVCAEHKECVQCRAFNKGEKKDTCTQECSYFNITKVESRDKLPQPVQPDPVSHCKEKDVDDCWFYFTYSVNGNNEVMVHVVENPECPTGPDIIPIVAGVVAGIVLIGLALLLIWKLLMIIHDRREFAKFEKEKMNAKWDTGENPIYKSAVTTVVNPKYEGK

Structure (SMILES)	IC50
COc1ccc(-c2ccc(C[C@H](NC(=O)C3CCCN(c4ncnc(N5CCCCC5)c4F)C3)C(=O)O)cc2)cc1 (stereo partly shown) [Example 2.16]	C-D
COc1ccc(-c2ccc(C[C@H](NC(=O)C3CCCN(c4ncnc(N5CCOCC5)c4F)C3)C(=O)O)cc2)cc1 (stereo partly shown) [Example 2.17]	C-D
COc1ccc(-c2ccc(C[C@H](NC(=O)C3CCCN(c4ncnc(N(C)Cc5ccccc5)c4F)C3)C(=O)O)cc2)cc1 (stereo partly shown) [Example 2.18]	C-D
COc1ccc(-c2ccc(C[C@H](NC(=O)C3CCCN(c4ncnc(N5CCNCC5)c4F)C3)C(=O)O)cc2)cc1 (stereo partly shown) [Example 2.19]	C-D
CCCNc1ncnc(N2CCCC(C(=O)N[C@@H](Cc3ccc(-c4ccc(OC)cc4)cc3)C(=O)O)C2)c1F (stereo partly shown) [Example 2.20]	C-D
COc1ccc(-c2ccc(C[C@H](NC(=O)C3CCCN(c4ncnc(NC5Cc6ccccc6C5)c4F)C3)C(=O)O)cc2)cc1 (stereo partly shown) [Example 2.21]	C-D
COc1ccc(-c2ccc(C[C@H](NC(=O)C3CCCN(c4ncnc(NCCN5CCCC5)c4F)C3)C(=O)O)cc2)cc1 (stereo partly shown) [Example 2.22]	C-D
CCCCN(C)c1ncnc(N2CCCC(C(=O)N[C@@H](Cc3ccc(-c4ccc(OC)cc4)cc3)C(=O)O)C2)c1F (stereo partly shown) [Example 2.23]	C-D
Cc1ccccc1-c1ccc(C[C@H](NC(=O)C2CCCN(c3ncnc(NCc4ccccn4)c3F)C2)C(=O)O)cc1 (stereo partly shown) [Example 2.24]	C-D
Cc1ccccc1-c1ccc(C[C@H](NC(=O)C2CCCN(c3ncnc(NC4CCCCC4)c3F)C2)C(=O)O)cc1 (stereo partly shown) [Example 2.25]	C-D
Cc1ccccc1-c1ccc(C[C@H](NC(=O)C2CCCN(c3ncnc(N4CCCCC4)c3F)C2)C(=O)O)cc1 (stereo partly shown) [Example 2.26]	C-D
Cc1ccccc1-c1ccc(C[C@H](NC(=O)C2CCCN(c3ncnc(N4CCOCC4)c3F)C2)C(=O)O)cc1 (stereo partly shown) [Example 2.27]	C-D
Cc1ccccc1-c1ccc(C[C@H](NC(=O)C2CCCN(c3ncnc(N(C)Cc4ccccc4)c3F)C2)C(=O)O)cc1 (stereo partly shown) [Example 2.28]	C-D
Cc1ccccc1-c1ccc(C[C@H](NC(=O)C2CCCN(c3ncnc(N4CCNCC4)c3F)C2)C(=O)O)cc1 (stereo partly shown) [Example 2.29]	C-D
Cc1ccccc1-c1ccc(C[C@H](NC(=O)C2CCCN(c3ncnc(NC4Cc5ccccc5C4)c3F)C2)C(=O)O)cc1 (stereo partly shown) [Example 2.31]	C-D
Cc1ccccc1-c1ccc(C[C@H](NC(=O)C2CCCN(c3ncnc(NCCN4CCCC4)c3F)C2)C(=O)O)cc1 (stereo partly shown) [Example 2.32]	C-D
CCCCN(C)c1ncnc(N2CCCC(C(=O)N[C@@H](Cc3ccc(-c4ccccc4C)cc3)C(=O)O)C2)c1F (stereo partly shown) [Example 2.33]	C-D

Structure (SMILES)	IC50
O=C(N[C@@H](Cc1ccc(-c2cc(Cl)ccc2Cl)cc1)C(=O)O)C1CCCN(c2ncnc(N3CCCCC3)c2F)C1 (stereo partly shown) [Example 2.35]	C-D
CN(Cc1ccccc1)c1ncnc(N2CCCC(C(=O)N[C@@H](Cc3ccc(-c4cc(Cl)ccc4Cl)cc3)C(=O)O)C2)c1F (stereo partly shown) [Example 2.36]	C-D
CCCNc1ncnc(N2CCCC(C(=O)N[C@@H](Cc3ccc(-c4cc(Cl)ccc4Cl)cc3)C(=O)O)C2)c1F (stereo partly shown) [Example 2.37]	C-D
O=C(N[C@@H](Cc1ccc(-c2cc(Cl)ccc2Cl)cc1)C(=O)O)C1CCCN(c2ncnc(NC3Cc4ccccc4C3)c2F)C1 (stereo partly shown) [Example 2.38]	C-D
CCCCN(C)c1ncnc(N2CCCC(C(=O)N[C@@H](Cc3ccc(-c4cc(Cl)ccc4Cl)cc3)C(=O)O)C2)c1F (stereo partly shown) [Example 2.40]	A-B
O=C(N[C@@H](Cc1ccc(-c2ccc(Cl)c(Cl)c2)cc1)C(=O)O)C1CCCN(c2ncnc(NCc3ccccn3)c2F)C1 (stereo partly shown) [Example 2.41]	C-D
O=C(N[C@@H](Cc1ccc(-c2ccc(Cl)c(Cl)c2)cc1)C(=O)O)C1CCCN(c2ncnc(NC3CCCCC3)c2F)C1 (stereo partly shown) [Example 2.42]	C-D
O=C(N[C@@H](Cc1ccc(-c2ccc(Cl)c(Cl)c2)cc1)C(=O)O)C1CCCN(c2ncnc(N3CCCCC3)c2F)C1 (stereo partly shown) [Example 2.43]	C-D
O=C(N[C@@H](Cc1ccc(-c2ccc(Cl)c(Cl)c2)cc1)C(=O)O)C1CCCN(c2ncnc(N3CCOCC3)c2F)C1 (stereo partly shown) [Example 2.44]	C-D
CN(Cc1ccccc1)c1ncnc(N2CCCC(C(=O)N[C@@H](Cc3ccc(-c4ccc(Cl)c(Cl)c4)cc3)C(=O)O)C2)c1F (stereo partly shown) [Example 2.45]	C-D
O=C(N[C@@H](Cc1ccc(-c2ccc(Cl)c(Cl)c2)cc1)C(=O)O)C1CCCN(c2ncnc(N3CCNCC3)c2F)C1 (stereo partly shown) [Example 2.46]	C-D
CCCNc1ncnc(N2CCCC(C(=O)N[C@@H](Cc3ccc(-c4ccc(Cl)c(Cl)c4)cc3)C(=O)O)C2)c1F (stereo partly shown) [Example 2.47]	C-D
O=C(N[C@@H](Cc1ccc(-c2ccc(Cl)c(Cl)c2)cc1)C(=O)O)C1CCCN(c2ncnc(NC3Cc4ccccc4C3)c2F)C1 (stereo partly shown) [Example 2.48]	C-D
O=C(N[C@@H](Cc1ccc(-c2ccc(Cl)c(Cl)c2)cc1)C(=O)O)C1CCCN(c2ncnc(NCCN3CCCC3)c2F)C1 (stereo partly shown) [Example 2.49]	C-D
CCCCN(C)c1ncnc(N2CCCC(C(=O)N[C@@H](Cc3ccc(-c4ccc(Cl)c(Cl)c4)cc3)C(=O)O)C2)c1F (stereo partly shown) [Example 2.50]	C-D
COc1ccccc1-c1ccc(C[C@H](NC(=O)C2CCCN(c3ncnc(N4CCCCC4)c3F)C2)C(=O)O)cc1 (stereo partly shown) [Example 2.52]	C-D
COc1ccccc1-c1ccc(C[C@H](NC(=O)C2CCCN(c3ncnc(NC4Cc5ccccc5C4)c3F)C2)C(=O)O)cc1 (stereo partly shown) [Example 2.56]	B-C

Same assay, conditions: adhesion of CFSE-labeled Jurkat cells to recombinant human VCAM-1 (domains 1-3) coated plates; compounds as yielded by solid phase synthesis, purity about 40-90%; read-out: IC50

Structure (SMILES)	IC50
CCCNc1ncnc(N2CCCC(C(=O)N[C@@H](Cc3ccc(-c4ccccc4C)cc3)C(=O)O)C2)c1F (stereo partly shown) [Example 2.30]	2000 to 10000 nM
O=C(N[C@@H](Cc1ccc(-c2cc(Cl)ccc2Cl)cc1)C(=O)O)C1CCCN(c2ncnc(NC3CCCCC3)c2F)C1 (stereo partly shown) [Example 2.34]	2000 to 10000 nM
O=C(N[C@@H](Cc1ccc(-c2cc(Cl)ccc2Cl)cc1)C(=O)O)C1CCCN(c2ncnc(NCCN3CCCC3)c2F)C1 (stereo partly shown) [Example 2.39]	500 to 2000 nM
COc1ccccc1-c1ccc(C[C@H](NC(=O)C2CCCN(c3ncnc(NCc4ccccn4)c3F)C2)C(=O)O)cc1 (stereo partly shown) [Example 2.51]	500 to 2000 nM
COc1ccccc1-c1ccc(C[C@H](NC(=O)C2CCCN(c3ncnc(N4CCOCC4)c3F)C2)C(=O)O)cc1 (stereo partly shown) [Example 2.53]	2000 to 10000 nM
COc1ccccc1-c1ccc(C[C@H](NC(=O)C2CCCN(c3ncnc(N4CCNCC4)c3F)C2)C(=O)O)cc1 (stereo partly shown) [Example 2.54]	≤ 500 nM
CCCNc1ncnc(N2CCCC(C(=O)N[C@@H](Cc3ccc(-c4ccccc4OC)cc3)C(=O)O)C2)c1F (stereo partly shown) [Example 2.55]	≤ 500 nM
CN1CCN(C(=O)Nc2ccc(C[C@H](NC(=O)C3CCCN(C(=O)Cc4cccs4)C3)C(=O)O)cc2)CC1 (stereo partly shown) [Example 4.2]	≤ 500 nM
CN1CCN(C(=O)Nc2ccc(C[C@H](NC(=O)C3CCCN(C(=O)c4ccc(OC(F)(F)F)cc4)C3)C(=O)O)cc2)CC1 (stereo partly shown) [Example 4.3]	500 to 2000 nM
O=C(N[C@@H](Cc1ccc(NC(=O)N2CCCCC2)cc1)C(=O)O)C1CCCN(C(=O)c2ccc(OC(F)(F)F)cc2)C1 (stereo partly shown) [Example 4.4]	2000 to 10000 nM
CN1CCN(C(=O)Nc2ccc(C[C@H](NC(=O)C3CCCN(S(C)(=O)=O)C3)C(=O)O)cc2)CC1 (stereo partly shown) [Example 4.5]	500 to 2000 nM
COc1ccc(S(=O)(=O)N2CCCC(C(=O)N[C@@H](Cc3ccc(NC(=O)N4CCN(C)CC4)cc3)C(=O)O)C2)cc1OC (stereo partly shown) [Example 4.6]	≤ 500 nM
O=C(N[C@@H](Cc1ccc(NC(=O)N2CCCCC2)cc1)C(=O)O)C1CCCN(S(=O)(=O)Cc2ccccc2)C1 (stereo partly shown) [Example 4.7]	500 to 2000 nM
O=C(N[C@@H](Cc1ccc(NC(=O)N2CCN(c3ccccc3)CC2)cc1)C(=O)O)C1CCCN(C(=O)c2ccc(OC(F)(F)F)cc2)C1 (stereo partly shown) [Example 4.8]	2000 to 10000 nM
O=C(N[C@@H](Cc1ccc(NC(=O)N2CCc3ccccc3C2)cc1)C(=O)O)C1CCCN(C(=O)Cc2cccs2)C1 (stereo partly shown) [Example 4.9]	≤ 500 nM
O=C(N[C@@H](Cc1ccc(NC(=O)N2CCN(C(c3ccccc3)c3ccccc3)CC2)cc1)C(=O)O)C1CCCN(C(=O)Cc2cccs2)C1 (stereo partly shown) [Example 4.10]	≤ 500 nM
Cc1ccc(S(=O)(=O)N2CCCC(C(=O)N[C@@H](Cc3ccc(NC(=O)N4CCN(C)CC4)cc3)C(=O)O)C2)cc1 (stereo partly shown) [Example 4.11]	≤ 500 nM
COc1ccccc1C(=O)N1CCCC(C(=O)N[C@@H](Cc2ccc(NC(=O)N3CCCCC3)cc2)C(=O)O)C1 (stereo partly shown) [Example 4.12]	≤ 500 nM
O=C(N[C@@H](Cc1ccc(NC(=O)N2CCOCC2)cc1)C(=O)O)C1CCCN(C(=O)c2ccc(OC(F)(F)F)cc2)C1 (stereo partly shown) [Example 4.13]	500 to 2000 nM
COc1ccccc1C(=O)N1CCCC(C(=O)N[C@@H](Cc2ccc(NC(=O)N3CCN(c4ccccc4)CC3)cc2)C(=O)O)C1 (stereo partly shown) [Example 4.14]	≤ 500 nM
COc1ccccc1C(=O)N1CCCC(C(=O)N[C@@H](Cc2ccc(NC(=O)NCC(c3ccccc3)c3ccccc3)cc2)C(=O)O)C1 (stereo partly shown) [Example 4.15]	500 to 2000 nM
CN1CCN(C(=O)Nc2ccc(C[C@H](NC(=O)C3CCCN(S(=O)(=O)c4ccc5ccccc5c4)C3)C(=O)O)cc2)CC1 (stereo partly shown) [Example 4.16]	≤ 500 nM
O=C(N[C@@H](Cc1ccc(NC(=O)N2CCOCC2)cc1)C(=O)O)C1CCCN(C(=O)OCc2ccccc2)C1 (stereo partly shown) [Example 4.17]	500 to 2000 nM
O=C(N[C@@H](Cc1ccc(NC(=O)N2CCN(c3ccccc3)CC2)cc1)C(=O)O)C1CCCN(C(=O)Cc2cccs2)C1 (stereo partly shown) [Example 4.18]	≤ 500 nM
COc1ccc(OC(=O)N2CCCC(C(=O)N[C@@H](Cc3ccc(NC(=O)N4CCN(c5ccccc5)CC4)cc3)C(=O)O)C2)cc1 (stereo partly shown) [Example 4.19]	2000 to 10000 nM
O=C(N[C@H](Cc1ccc(NC(=O)N2CCc3ccccc3C2)cc1)C(=O)O)C1CCCN(C(=O)c2ccc(OC(F)(F)F)cc2)C1 (stereo partly shown) [Example 4.20]	2000 to 10000 nM
O=C(N[C@@H](Cc1ccc(NC(=O)N2CCOCC2)cc1)C(=O)O)C1CCCN(C(=O)Cc2ccccc2)C1 (stereo partly shown) [Example 4.21]	500 to 2000 nM
